According to article PMC7529893, “Structural basis for substrate recognition and chemical inhibition of oncogenic MAGE ubiquitin ligases” (Nature Communications, 2020):
Converted amounts (≈) assume the structure as drawn. “Also recorded” adds a separate entry of the source.

Legend:
[1] = Solubility assay (μSOL Evolution); type: physicochemical; conditions: citrate phosphate-buffered saline (isotonic) with 1% DMSO; 18 h at RT
Protocol: Solubility assays were carried out on a Biomek FX lab automation workstation (Beckman Coulter, Inc., Fullerton, CA) using μSOL Evolution software (pION Inc., Woburn, MA). The detailed method is described as follows. 10 µl of 10 mM compound stock (in DMSO) was added to 190 μl 1-propanol to make a reference stock plate. In total, 5 µl from this reference stock plate were mixed with 70 µl 1-propanol and 75 µl citrate phosphate-buffered saline (PBS; isotonic) to make the reference plate, and the UV spectrum (250–500 nm) of the reference plate was read. In total, 6 µl of 10 mM test compound stock was added to 594 µl buffer in a 96-well storage plate and mixed. The storage plate was sealed and incubated at RT for 18 h. The suspension was then filtered through a 96-well filter plate (pION Inc., Woburn, MA). In all, 75 µl of filtrate was mixed with 75 µl 1-propanol to make the sample plate, and the UV spectrum of the sample plate was read. Calculations were carried out with μSOL Evolution software based on the area under the curve (AUC) of the UV spectrum of the sample and reference plates. All compounds were tested in triplicate.

[2] = High throughput Caco-2 permeability; type: in vitro ADME; conditions: human, Caco-2, pH 7.4, 10 µmol/l, 2 h; for Papp A→B at 2 h, 10 µmol/l: apical to basolateral; for Papp B→A at 2 h, 10 µmol/l: basolateral to apical
Protocol: High throughput Caco-2 permeability was performed in the TranswellR 0.4 µm polycarbonate membrane 96-well system with modified methods. Caco-2 cells were maintained at 37 °C in a humidified incubator with an atmosphere of 5% CO2. The cells were cultured in 75 cm^2 flasks with Dulbecco’s Modified Eagle’s Medium (DMEM) containing 10% (v/v) FBS, 1% (v/v) non-essential amino acids (NEAA), 100 units/ml of penicillin, and 100 µg/ml of streptomycin. The Caco-2 cells were seeded onto inserts at a density of 2 × 10^4 cells/insert separately. The medium in the wells was exchanged each other day, and the trans epithelial electrical resistance (TEER) value was measured using an epithelial voltohm meter (Millipore, Billerica, Massachusetts). […] For transport experiments, each cultured monolayer on the 96-well plate was washed twice with a transport buffer (HBSS containing 25 mM HEPES, pH 7.4). The permeability assay was initiated by the addition of each compound solution (10 µmol/l) into inserts (apical side, A) or receivers (basolateral side, B). The Caco-2 cell monolayers were incubated for 2 h at 37 °C. Fractions were collected from receivers (if apical to basal permeability) or inserts (if basal to apical permeability), and concentrations were assessed by UPLC/MS (Waters; Milford, MA). All compounds were tested in triplicates. The A → B (or B → A) apparent permeability coefficients (Papp) of each compound were calculated using the equation, Papp = dQ/dt × 1/AC0, where dQ/dt equals the flux of a drug across the monolayer, A equals the total insert well surface area, and C0 is the initial concentration of substrate in the donor compartment. The efflux ratio was determined by dividing the Papp in the B-A direction by the Papp in the A-B direction.

MAGE-F1:MMS19 = molecular target: T1, MAGE-F1:MMS19 (Homo sapiens, UniProt Q9HAY2); experiment: Co-IP of MAGE-F1 with MMS19 in cell lysate; type: binding; conditions: 100 µM, 24 h
T1 construct: expressed in transfected cells
T1 sequence (Q9HAY2 1-307): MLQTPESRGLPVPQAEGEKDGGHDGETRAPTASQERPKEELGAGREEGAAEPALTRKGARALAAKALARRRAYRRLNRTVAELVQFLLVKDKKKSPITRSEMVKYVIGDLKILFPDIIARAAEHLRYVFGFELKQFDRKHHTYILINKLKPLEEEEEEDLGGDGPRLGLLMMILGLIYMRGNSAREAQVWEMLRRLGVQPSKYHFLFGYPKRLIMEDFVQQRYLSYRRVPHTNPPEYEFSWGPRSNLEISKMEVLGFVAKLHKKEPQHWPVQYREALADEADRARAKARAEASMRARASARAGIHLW
Protocol: HEK293FT cells were plated in 6 cm^2 plates and transfected 24 h later with Effectene (QIAGEN) according to the manufacturer’s protocol. After 48 h, cells were washed and scraped in cold PBS, spun down, and resuspended in lysis buffer (50 mM Tris pH 7.4, 150 mM NaCl, 1 mM DTT, 0.1% (v/v) Triton X-100, 10 mM N-Ethylmaleimide, and 1X protease inhibitor cocktail (Sigma)). Cell lysates were incubated with appropriate antibodies overnight at 4 °C and then with protein A beads for 2 h at 4 °C. Beads were then washed with lysis buffer three times and eluted with 2X SDS sample buffer.
For western blotting, samples in SDS sample buffer were resolved on SDS-PAGE gels and then transferred to nitrocellulose membranes prior to blocking in TBST with 5% (w/v) milk powder or 3% (w/v) bovine serum albumin and probing with primary and secondary antibodies (GE Healthcare). Primary antibodies were: anti-Myc (Sigma, #C3956), anti-FLAG (Sigma, #F3165), anti-HUWE1 (Novus Biologicals, #NB 100-652), anti-PCF11 (Bethyl Laboratories, #A303-706A), anti-GAPDH (Cell Signaling Technology, #2118), anti-TRIM28 (Abcam, #ab22553), anti-AMPKα1 (Cell Signaling Technology, #2795), and anti-MMS19 (Proteintech, #16015-1-AP) and Tb-anti-GST (Invitrogen, #PV3551). Secondary antibodies were: Donkey Anti-Rabbit IgG (GE Healthcare, NA934V) and Sheep Anti-Mouse IgG (GE Healthcare, NA931V). […]

SMILES	solubility at 18 h [1] [µM]	Papp A→B at 2 h, 10 µmol/l [2] [×10⁻⁶ cm/s]	Papp B→A at 2 h, 10 µmol/l [2] [×10⁻⁶ cm/s]	interaction of MAGE-F1 with MMS19 in cell lysate (MAGE-F1:MMS19; listed as SJ521054)	interaction of MAGE-F1 with MMS19 in cell lysate (MAGE-F1:MMS19; listed as SJ1008066)
FC(F)(F)c1ccc2c(NCCCNCc3ccc4[nH]ccc4c3)ccnc2c1 [SJ000521054-02]	26.5 (≈ 10.6 µg/mL)	11.5	14.2	do not disrupt interaction; also recorded: did not disrupt interaction	–
c1ccc2c(NCCCNCc3ccc4[nH]ccc4c3)ccnc2c1 [SJ001008066-01]	37.8 (≈ 12.5 µg/mL)	8.17	8.09	–	do not disrupt interaction; also recorded: did not disrupt interaction
